Source: patent publication US9340559B2, “Proteasome inhibitor delanzomib for use in the treatment of lupus” (Cephalon, Inc., priority 2011, dated 2016)

What was measured:
MRL/lpr mice [1] = assay: Spleen plasma cells by flow cytometry, MRL/lpr mice
NZM mice [2] = assay: Serum C3 complement ELISA, NZM mice (Example 2)
NZM mice [3] = assay: Survival, NZM lupus nephritis model, ip dosing (Example 2); type: in vivo, mouse
MRL/lpr mice [4] = assay: Antinuclear antibody (ANA) ELISA (anti-chromatin, anti-Smith Ag, anti-dsDNA IgG), serum of MRL/lpr mice; type: in vivo, mouse
Source text: For all ANA ELISA assays, values below the limit of detection set by the lowest point along the standard or set by the manufacturer are considered out of range and are not estimated, but assumed the lowest point along the standard curve for that particular assay.

MRL/lpr mice [5] = assay: Urinalysis: total urine protein (proteinuria), MRL/lpr mice; type: in vivo, mouse
Protocol: Urine samples are acid precipitated for total protein recovery and analysis. Samples for which enough urine remained are used for Uristix® leukouria analysis. Briefly, a standard protein solution is prepared from normal mouse sera and is used as a standard for mouse urinary protein assay by turbidity. Standard preparation is as follows: 0, 5, 10, 15, 20, 30, 40, and 50 μL of a 4 mg/mL mouse sera standard protein solution as provided in the kit are added in duplicate into two columns. PBS is added to individual wells to adjust the final volume to 50 μL. For urine sample preparation, urine samples are centrifuged at 9880×g for 3 minutes using a tabletop micro-centrifuge. Urine supernatant (1-50 μL) is added in duplicate. PBS is added to adjust the volume to 50 μL total. For the turbidity assay: 25 μL of 0.1 N HCl is added into blank columns and 250 μL of 3% sulfosalicyclic acid into the test columns. The microplate is incubated for 10 minutes at RT and plates are read using an ELISA reader with single beam at 450 nm. For the Uristix® strip assay, strips are laid out and labeled. Twenty microliters of urine are placed onto each test strip square and incubated for at least 30 seconds before the result is recorded. For all total urine analysis plate-based assays, values below the limit of detection set by the lowest point along the standard or set by the manufacturer are considered out of range and are not estimated, but assumed the lowest point along the standard curve for that particular assay.

MRL/lpr mice [6] = assay: Survival / mortality, MRL/lpr mice (Example 1); conditions: for EOS survival, true EOS mouse percentage from starting population: vehicle 92
Protocol: Six week old lupus-prone, female, MRL/lpr (Jackson Labs, #000485) and non-lupus prone control MRL/MpJ (Jackson Labs, #000486) mice are obtained from Jackson Laboratories (Bar Harbor, Me.) at 6-weeks of age. All mice are maintained on a 24 hour light/dark cycle, with food and water available ad libitum. All experimental animal procedures are approved by and in accordance to the regulations of the Institutional Animal Care and Use Committee (IACUC) of Cephalon, Inc; approved IACUC protocol #03-040 and #03-03-041.
Due to this impaired tolerance mechanism, a percentage of all T and B cells that enter the periphery have a high likelihood of responding to self protein/tissues and thus initiate autoimmunity early in life. The MRL/lpr model mice develop several chronic inflammatory disease-like symptoms that are characteristic of early and late lupus including the generation of anti-nuclear antibodies, arthritis, dermatological manifestations, immunocomplex-mediated glomerulonephritis leading to proteinuria and eventual death. Lesser characterized phenomenon are CNS and cardiac manifestations, both of which are more common in humans. […] Mortality is higher in the females and occurs around 25 weeks of age, renal disease includes glomerulonephritis, glomerular infiltrates, sclerosis and vasculitis. Both splenomegaly and lymphomegaly associated with dermatitis can also be observed.
MRL/lpr mice are first randomized, initial bleeds collected, and body weights recorded for baseline measurements (FIG. 1). All mice are individually ear tagged and are monitored throughout the entire experiment (e.g., “Group#-Cage letter-Mouse#”, so “3B5”=Group 3 (G3), cage B, mouse #5). Mice are age-matched and treatment started at 6-8 weeks of age. Cheek bleeds and urine collection continues weekly throughout the experiment. Mice are individually tracked for several parameters including cytokine and ANA levels, proteinuria, body mass, lymphomegaly, general health, and mortality. All parameters are evaluated bi-monthly except mortality which is monitored daily. All groups consist of a minimum of at least 10-12 mice per group. Ex vivo experiments include flow cytometry analyses for plasma cells, serum complement C3 and ANA levels; urine protein and leukocytes, serum cytokine profiling, renal histo pathology, and determination of compound levels (pharmacokinetics (PK)) in the spleen, kidney and plasma. Mice are tracked on an individual basis. For all data, mice are grouped into populations and data graphed as mean±SEM. End-stage readouts are analyzed as described in the MATERIALS AND METHODS section (above) and in FIG. 1.
Vehicle alone is provided orally twice weekly (p.o.). Both proteasome inhibitors are suspended in the vehicle solution. Bi-monthly bleeds and urine are collected and frozen at […] until assayed. End analyses include kidney histology, splenocyte B-cell Elispots, flow cytometry for B and T cell populations, PD markers, serum cytokines, antibody and complement levels. In addition, urine proteinuria is determined for all animals.
In group two (G2), COMPOUND A was administered at a dose of 3 mg/kg iv twice weekly. In group three (G3), COMPOUND A was administered at a dose of 10 mg/kg p.o. twice weekly. […] In the new group five (G5), bortezomib was administered at a dose of 0.3 mg/kg iv twice weekly. Dexamethasone was administered at a dose of 1.5 mg/kg/2d (M, W, F) ip. Vehicle was 3% DMSO/10% Solutol/87% PBS. In those instances in which mice could not be injected via the iv route, agents were administered ip as noted in Table 1.

NZM mice [7] = assay: Urinalysis: total urine protein (proteinuria), NZM mice (Example 2); type: in vivo, mouse

CC(C)C[C@H](NC(=O)[C@H](Cc1ccccc1)NC(=O)c1cnccn1)B(O)O [bortezomib, reference compound]
EOS plasma cells, percent change vs vehicle (MRL/lpr mice [1]; G4: 0.5 mg/kg iv, 1× wk): −67% | EOS plasma cells, percent change vs vehicle (MRL/lpr mice [1]; G5: 0.3 mg/kg iv, 2× wk): −33% | spleen plasma cells decrease vs vehicle (MRL/lpr mice [1]; Group 4): 66% | spleen plasma cells decrease vs vehicle (MRL/lpr mice [1]; Group 5): 33% | Serum C3 complement AUC, percent change vs vehicle (NZM mice [2]; G3 0.3 mg/kg ip, 1× wk): 8% | Serum C3 complement AUC, percent change vs vehicle (NZM mice [2]; G4 0.3 mg/kg ip, 2× wk): −11% | EOS survival, percent live mice from original number (NZM mice [3]; G3 0.3 mg/kg ip, 1× wk): 58% | EOS survival, percent live mice from original number (NZM mice [3]; G4 0.3 mg/kg ip, 2× wk): 75% | mice still alive at day 56 (NZM mice [3]; both treatment groups of the substance): 75% | ANA AUC Smith Ag, percent change vs vehicle (MRL/lpr mice [4]; G4: 0.5 mg/kg iv, 1× wk): −84% | ANA AUC chromatin, percent change vs vehicle (MRL/lpr mice [4]; G4: 0.5 mg/kg iv, 1× wk): −82% | ANA AUC dsDNA, percent change vs vehicle (MRL/lpr mice [4]; G4: 0.5 mg/kg iv, 1× wk): −88% | ANA AUC Smith Ag, percent change vs vehicle (MRL/lpr mice [4]; G5: 0.3 mg/kg iv, 2× wk): −58% | ANA AUC chromatin, percent change vs vehicle (MRL/lpr mice [4]; G5: 0.3 mg/kg iv, 2× wk): −58% | ANA AUC dsDNA, percent change vs vehicle (MRL/lpr mice [4]; G5: 0.3 mg/kg iv, 2× wk): −76% | anti-Smith Ag IgG ANA level decrease vs vehicle at EOS (MRL/lpr mice [4]; Group 4): 74% | anti-dsDNA IgG ANA decrease vs vehicle (MRL/lpr mice [4]; Group 4 (iv)): 82% | anti-dsDNA IgG ANA decrease vs vehicle (MRL/lpr mice [4]; Group 5 (iv)): 58% | anti-chromatin IgG level decrease vs vehicle (MRL/lpr mice [4]; weekly bortezomib dose): 64% | Urine AUC proteinuria, percent change vs vehicle (MRL/lpr mice [5]; G4: 0.5 mg/kg iv, 1× wk): −55% | Urine AUC proteinuria, percent change vs vehicle (MRL/lpr mice [5]; G5: 0.3 mg/kg iv, 2× wk): −50% | proteinuria decrease relative to vehicle (MRL/lpr mice [5]; treated weekly with bortezomib): 55% | decrease in survival over that of vehicle at EOS (MRL/lpr mice [6]; 0.3 mg/kg iv twice weekly): 19% | decrease in survival over that of vehicle at EOS (MRL/lpr mice [6]; 0.5 mg/kg iv once weekly): 2% | EOS survival, true EOS mouse percentage from starting population (MRL/lpr mice [6]; G4: 0.5 mg/kg iv, 1× wk): 90% | EOS survival, true EOS mouse percentage from starting population (MRL/lpr mice [6]; G5: 0.3 mg/kg iv, 2× wk): 73% | tolerability of initial dose (MRL/lpr mice [6]; initial G4 dose 0.5 mg/kg iv twice weekly): animal mortality | Urine proteinuria AUC, percent change vs vehicle (NZM mice [7]; G3 0.3 mg/kg ip, 1× wk): 30% | Urine proteinuria AUC, percent change vs vehicle (NZM mice [7]; G4 0.3 mg/kg ip, 2× wk): −57%
